This passage reports melting point results from US6903218B2, “Sulfonamide substituted chroman derivatives” (Bayer Pharmaceuticals Corporation, priority 1997, dated 2005).

Each structure is given as a SMILES string.

A word on the melting point: it is the temperature of the solid-liquid transition. `CC(C)c1ccc(NS(=O)(=O)c2ccc3c(c2)CCC(CNC[C@H](O)c2cccnc2)O3)cc1` (stereo in doubt) (hydrate or solvate) came in with a melting point of 104 to 106 °C. The value for `O=c1n(CCCC2CCCC2)nnn1-c1ccc(NS(=O)(=O)c2ccc3c(c2)CCC(CNC[C@H](O)c2cccnc2)O3)cc1` (stereo partly shown) (hydrate or solvate) was 93 to 95 °C; that for `Nc1ccc([C@@H](O)CNC[C@H]2CCc3cc(NS(=O)(=O)c4ccc(-n5nnn(CCCC6CCCCC6)c5=O)cc4)ccc3O2)cn1` was 94 to 95 °C. The value for `Nc1ccc([C@@H](O)CNCC2CCc3cc(S(=O)(=O)Nc4ccc(Cl)cc4)ccc3O2)cn1` (stereo in doubt) was 95 °C (dec.). In the case of `O=c1n(CCCC2CCCC2)nnn1-c1ccc(NS(=O)(=O)c2ccc3c(c2)CCC(CN(C[C@H](O)c2cccc(Cl)c2)C[C@H](O)c2cccc(Cl)c2)O3)cc1` (stereo partly shown) (hydrate or solvate) it was 110 to 115 °C (dec.); in that of `O=c1n(CCCC2CCCC2)ccn1-c1ccc(NS(=O)(=O)c2ccc3c(c2)CCC(CNC[C@H](O)c2cccnc2)O3)cc1` (stereo in doubt), 90 to 92 °C.

Molecule `Nc1ccc([C@@H](O)CNC[C@@H]2CCc3cc(S(=O)(=O)Nc4ccc(-n5nnn(CCCC6CCCC6)c5=O)cc4)ccc3O2)cn1` registered a melting point of 99.3 to 99.7 °C.
